# Laboratory results reported in PubChem BioAssay AID1963863 (Molecular Pharmacology Branch, DTP, NCI, 2024).
# Tested on: 931267-113-T-J1-PDC KRAS spheroid with HUVEC/MSC, viability
# Assay: Anticancer human tumor 931267-113-T-J1-PDC patient-derived colon adenocarcinoma cell line growth inhibition [KRAS2]
# Conditions: for IC50: curve of first compound; for viability, T/C: stronger effect = lower value
# Outline: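 Combination screen of spheroid viability in tumor-cell co-cultures with endothelial (HUVEC) and mesenchymal stem cell stroma. Each agent was tested in half-log dilutions, topping at clinical Cmax or at 10 microM without a known Cmax.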
# 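Further: compound exposure lasted 7 days before the readout.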
# 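Wherever viability, T/C is given: 100% = DMSO vehicle control viability.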
smiles,measurement,setting,value
CC1OCC2(CCN(c3cnc(Sc4ccnc(N)c4Cl)c(N)n3)CC2)C1N (stereo not given) + COc1cc2nc(C)nc(NC(C)c3cc(N)cc(C(F)(F)F)c3)c2cc1OC1CCOC1,IC50,second compound 0.1 µM,> 10 µM
same,IC50,second compound 0.316 µM,> 10 µM
same,IC50,second compound 1 µM,> 10 µM
same,IC50,second compound 3.16 µM,> 10 µM
same,IC50,second compound 10 µM,< 0.0316 µM
same,"viability, T/C","second compound 0.1 µM, first compound 0.0316 µM",79.3%
same,"viability, T/C","second compound 0.1 µM, first compound 0.1 µM",59%
same,"viability, T/C","second compound 0.1 µM, first compound 0.316 µM",75.5%
same,"viability, T/C","second compound 0.1 µM, first compound 1 µM",77.5%
same,"viability, T/C","second compound 0.1 µM, first compound 3.16 µM",68.3%
same,"viability, T/C","second compound 0.1 µM, first compound 10 µM",90.7%
same,"viability, T/C","second compound 0.316 µM, first compound 0.0316 µM",62.2%
same,"viability, T/C","second compound 0.316 µM, first compound 0.1 µM",56.1%
same,"viability, T/C","second compound 0.316 µM, first compound 0.316 µM",65%
same,"viability, T/C","second compound 0.316 µM, first compound 1 µM",68.1%
same,"viability, T/C","second compound 0.316 µM, first compound 3.16 µM",70.6%
same,"viability, T/C","second compound 0.316 µM, first compound 10 µM",77.9%
same,"viability, T/C","second compound 1 µM, first compound 0.0316 µM",70.6%
same,"viability, T/C","second compound 1 µM, first compound 0.1 µM",72.8%
same,"viability, T/C","second compound 1 µM, first compound 0.316 µM",56%
same,"viability, T/C","second compound 1 µM, first compound 1 µM",63.1%
same,"viability, T/C","second compound 1 µM, first compound 3.16 µM",79%
same,"viability, T/C","second compound 1 µM, first compound 10 µM",64.9%
same,"viability, T/C","second compound 3.16 µM, first compound 0.0316 µM",70.7%
same,"viability, T/C","second compound 3.16 µM, first compound 0.1 µM",49.8%
same,"viability, T/C","second compound 3.16 µM, first compound 0.316 µM",51.8%
same,"viability, T/C","second compound 3.16 µM, first compound 1 µM",54.9%
same,"viability, T/C","second compound 3.16 µM, first compound 3.16 µM",61.4%
same,"viability, T/C","second compound 3.16 µM, first compound 10 µM",67.6%
same,"viability, T/C","second compound 10 µM, first compound 0.0316 µM",3.02%
same,"viability, T/C","second compound 10 µM, first compound 0.1 µM",2.08%
same,"viability, T/C","second compound 10 µM, first compound 0.316 µM",4.77%
same,"viability, T/C","second compound 10 µM, first compound 1 µM",2.12%
same,"viability, T/C","second compound 10 µM, first compound 3.16 µM",2.08%
same,"viability, T/C","second compound 10 µM, first compound 10 µM",0.42%
